Some targets named below: PIK3CA (human) (UniProt P42336); PIK3CD (Human) (UniProt O00329); PIK3CB (Human) (UniProt P42338).
Test in all cases: Enzyme Assay

The structures appear in SMILES notation.

Chain of PIK3CA (human) (P42336 whole entry, looked up): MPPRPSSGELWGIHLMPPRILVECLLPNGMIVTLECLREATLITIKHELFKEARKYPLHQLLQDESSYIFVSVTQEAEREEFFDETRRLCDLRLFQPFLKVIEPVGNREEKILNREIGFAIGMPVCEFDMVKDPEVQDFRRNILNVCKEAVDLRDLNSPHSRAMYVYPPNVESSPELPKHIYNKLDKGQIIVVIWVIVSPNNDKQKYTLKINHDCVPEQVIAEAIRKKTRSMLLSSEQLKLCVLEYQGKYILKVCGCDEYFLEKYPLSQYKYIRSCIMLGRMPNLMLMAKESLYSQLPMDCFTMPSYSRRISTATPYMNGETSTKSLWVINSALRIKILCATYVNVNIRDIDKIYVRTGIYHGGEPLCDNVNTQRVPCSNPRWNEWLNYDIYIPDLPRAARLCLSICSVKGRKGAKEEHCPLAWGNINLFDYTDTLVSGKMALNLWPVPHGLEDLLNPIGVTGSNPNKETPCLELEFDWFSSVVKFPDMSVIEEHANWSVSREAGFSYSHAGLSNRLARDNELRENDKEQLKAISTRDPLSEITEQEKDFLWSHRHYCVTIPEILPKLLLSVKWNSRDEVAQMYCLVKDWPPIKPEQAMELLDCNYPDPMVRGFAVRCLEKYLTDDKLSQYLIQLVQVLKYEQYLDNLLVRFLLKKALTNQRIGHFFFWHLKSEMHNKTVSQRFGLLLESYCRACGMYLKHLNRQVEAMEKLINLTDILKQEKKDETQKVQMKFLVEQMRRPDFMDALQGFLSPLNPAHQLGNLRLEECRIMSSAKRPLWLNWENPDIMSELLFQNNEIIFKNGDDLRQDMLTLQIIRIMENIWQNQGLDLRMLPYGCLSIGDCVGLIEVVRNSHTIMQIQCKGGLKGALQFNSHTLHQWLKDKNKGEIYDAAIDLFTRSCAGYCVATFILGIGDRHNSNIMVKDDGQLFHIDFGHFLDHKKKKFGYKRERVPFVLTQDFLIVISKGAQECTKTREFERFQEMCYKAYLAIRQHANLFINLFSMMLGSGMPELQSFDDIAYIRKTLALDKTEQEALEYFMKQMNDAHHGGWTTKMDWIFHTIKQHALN
Chain of PIK3CB (Human) (P42338 whole entry, looked up): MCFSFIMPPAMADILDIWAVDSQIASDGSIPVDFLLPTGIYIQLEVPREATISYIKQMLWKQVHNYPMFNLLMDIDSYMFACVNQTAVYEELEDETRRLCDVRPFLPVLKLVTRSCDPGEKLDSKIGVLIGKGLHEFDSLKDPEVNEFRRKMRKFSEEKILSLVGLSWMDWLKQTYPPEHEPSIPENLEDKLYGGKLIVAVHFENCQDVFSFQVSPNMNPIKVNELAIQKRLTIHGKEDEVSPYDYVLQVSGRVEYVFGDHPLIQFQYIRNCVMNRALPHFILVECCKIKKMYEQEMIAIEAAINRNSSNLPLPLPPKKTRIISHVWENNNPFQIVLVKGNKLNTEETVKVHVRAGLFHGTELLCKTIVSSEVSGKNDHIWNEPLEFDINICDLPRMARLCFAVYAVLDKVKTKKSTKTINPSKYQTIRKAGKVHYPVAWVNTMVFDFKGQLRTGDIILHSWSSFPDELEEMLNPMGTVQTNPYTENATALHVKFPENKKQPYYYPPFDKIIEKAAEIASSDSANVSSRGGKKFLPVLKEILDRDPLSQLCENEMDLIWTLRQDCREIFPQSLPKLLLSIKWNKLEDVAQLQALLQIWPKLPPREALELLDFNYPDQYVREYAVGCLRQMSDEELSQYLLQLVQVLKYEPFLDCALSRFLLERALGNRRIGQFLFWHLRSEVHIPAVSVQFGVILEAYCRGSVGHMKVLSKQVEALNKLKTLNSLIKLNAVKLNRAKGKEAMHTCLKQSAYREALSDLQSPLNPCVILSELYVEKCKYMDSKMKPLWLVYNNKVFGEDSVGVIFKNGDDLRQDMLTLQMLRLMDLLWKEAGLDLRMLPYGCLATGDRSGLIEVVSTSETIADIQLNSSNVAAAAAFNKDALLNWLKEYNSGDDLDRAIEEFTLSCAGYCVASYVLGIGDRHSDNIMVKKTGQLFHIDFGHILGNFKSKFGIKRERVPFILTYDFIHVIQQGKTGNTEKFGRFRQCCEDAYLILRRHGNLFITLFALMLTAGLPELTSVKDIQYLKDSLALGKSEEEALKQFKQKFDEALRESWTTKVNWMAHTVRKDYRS
Chain of PIK3CD (Human) (O00329 whole entry, looked up): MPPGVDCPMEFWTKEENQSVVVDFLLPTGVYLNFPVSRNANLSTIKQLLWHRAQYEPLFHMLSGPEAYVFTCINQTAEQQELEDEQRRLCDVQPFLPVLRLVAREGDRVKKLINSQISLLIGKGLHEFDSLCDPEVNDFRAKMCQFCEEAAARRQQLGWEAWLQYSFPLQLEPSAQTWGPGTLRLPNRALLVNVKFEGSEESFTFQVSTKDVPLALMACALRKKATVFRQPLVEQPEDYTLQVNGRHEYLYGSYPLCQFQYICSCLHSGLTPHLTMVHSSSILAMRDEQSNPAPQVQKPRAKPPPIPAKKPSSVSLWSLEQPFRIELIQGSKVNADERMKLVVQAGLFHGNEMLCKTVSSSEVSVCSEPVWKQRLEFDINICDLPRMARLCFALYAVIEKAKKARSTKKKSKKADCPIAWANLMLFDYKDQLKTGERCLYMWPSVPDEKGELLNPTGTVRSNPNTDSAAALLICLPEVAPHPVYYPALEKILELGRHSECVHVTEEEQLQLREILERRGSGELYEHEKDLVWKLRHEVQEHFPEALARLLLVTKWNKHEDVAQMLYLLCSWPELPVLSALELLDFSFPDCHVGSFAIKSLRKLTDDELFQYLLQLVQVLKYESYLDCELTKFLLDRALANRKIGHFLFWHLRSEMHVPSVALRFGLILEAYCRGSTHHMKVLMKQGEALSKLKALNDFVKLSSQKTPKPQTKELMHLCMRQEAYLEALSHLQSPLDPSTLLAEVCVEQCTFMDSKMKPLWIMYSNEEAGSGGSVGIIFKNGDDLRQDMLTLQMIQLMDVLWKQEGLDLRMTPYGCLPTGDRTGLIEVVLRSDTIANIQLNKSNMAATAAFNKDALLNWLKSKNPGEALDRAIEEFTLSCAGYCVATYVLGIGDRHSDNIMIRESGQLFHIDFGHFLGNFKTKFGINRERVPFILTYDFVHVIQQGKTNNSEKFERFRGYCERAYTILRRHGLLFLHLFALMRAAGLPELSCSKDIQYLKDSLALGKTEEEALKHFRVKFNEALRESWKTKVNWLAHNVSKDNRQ

The term IC50 denotes the midpoint of a concentration-inhibition curve. `Cc1cccc2cc([C@H](C)Nc3ncnc4[nH]c(Cl)nc34)n(C3CC3)c(=O)c12`: the concentration for half-maximal inhibition (IC50) at PIK3CA (human), against PIK3CD (Human) and at PIK3CB (Human) was above 10 µM throughout.
As to `Cc1cccc2cc(C(C)Nc3nc(O)ncc3N)n(-c3ccccc3)c(=O)c12` (configuration not stated), the IC50 on PIK3CA (human), against PIK3CD (Human) and against PIK3CB (Human) was above 10 µM in each case.
`Cc1cccc2cc(C(C)Nc3ncnc4[nH]cnc34)n(-c3ccc(F)cc3)c(=O)c12` (configuration not stated): the IC50 on PIK3CD (Human) is below 0.1 µM; against PIK3CB (Human), 0.1 to 1 µM.
Take `Cc1ccccc1-n1c(Cn2nc(-c3cn[nH]c3)c3c(N)ncnc32)cc2ccccc2c1=O`: the half-maximal inhibitory concentration (IC50) on PIK3CA (human) was above 10 µM; against PIK3CD (Human), 0.1 to 1 µM; on PIK3CB (Human), above 10 µM.
On to `Cc1ccccc1-n1c(Cn2nc(CN3CCOCC3)c3c(N)ncnc32)cc2cccc(C)c2c1=O`, for which the IC50 against PIK3CA (human) and at PIK3CB (Human) was above 10 µM throughout.
Turning to `Cc1cccc2cc([C@H](C)Nc3ncnc4[nH]cc(F)c34)n(C3CC3)c(=O)c12`, the IC50 is 0.1 to 1 µM against PIK3CA (human), below 0.1 µM against PIK3CD (Human) and below 0.1 µM at PIK3CB (Human).
For `COc1cc(F)cc(-c2nn(Cc3cc4cccc(C)c4c(=O)n3-c3ccccc3C)c3ncnc(N)c23)c1`, the 50% inhibitory concentration (IC50) against PIK3CA (human) was above 10 µM; against PIK3CD (Human), 0.1 to 1 µM; against PIK3CB (Human), above 10 µM.
`Cc1ccccc1-n1c(Cn2nc(CF)c3c(N)ncnc32)cc2cccc(C)c2c1=O`: the IC50 against PIK3CD (Human) is below 0.1 µM; on PIK3CB (Human), above 10 µM.
In the same order, the values of `Cc1cccc2cc([C@H](C)Nc3ncnc4[nH]nc(C(N)=O)c34)n(C3CC3)c(=O)c12` are below 0.1 µM and below 0.1 µM.
On to `Cc1cccc2cc(Cn3nc(C4=CCOCC4)c4c(N)ncnc43)n(-c3ccccc3)c(=O)c12`, for which the IC50 against PIK3CA (human), on PIK3CD (Human) and at PIK3CB (Human) was above 10 µM in each case.
Take `Cc1ccccc1-n1c(Cn2nc(CCC(=O)N3CCOCC3)c3c(N)ncnc32)cc2cccc(C)c2c1=O`: the IC50 at PIK3CA (human) and at PIK3CB (Human) was above 10 µM each time.
In the case of `Cc1cccc2cc(Cn3nc(Br)c4c(N)ncnc43)n(-c3ccccc3F)c(=O)c12`, the figures for the IC50 against PIK3CA (human), against PIK3CD (Human) and against PIK3CB (Human) were above 10 µM, 0.1 to 1 µM and above 10 µM, respectively.
Turning to `Cc1cccc2cc(Cn3nc(-c4ccc(Cl)c(O)c4)c4c(N)ncnc43)n(-c3ccccc3F)c(=O)c12`, the half-maximal inhibitory concentration (IC50) against PIK3CA (human) and at PIK3CB (Human) was above 10 µM throughout.
For `CC(=O)Nc1nc2cc(-c3nn(Cc4cc5cccc(C)c5c(=O)n4-c4ccccc4)c4ncnc(N)c34)ccc2o1`, the 50% inhibitory concentration (IC50) against PIK3CD (Human) and against PIK3CB (Human) was below 0.1 µM throughout.
As to `Cc1cccc2cc(Cn3nc(-c4ccc(O)c(Cl)c4)c4c(N)ncnc43)n(-c3ccccc3F)c(=O)c12`, the results for the IC50 on PIK3CA (human), on PIK3CD (Human) and on PIK3CB (Human) were above 10 µM, 0.1 to 1 µM and above 10 µM, respectively.
With `Cc1cccc2cc(Cn3nc(I)c4c(N)ncnc43)n(C(C)C)c(=O)c12`, the IC50 against PIK3CA (human) and against PIK3CB (Human) was above 10 µM each time.
Regarding `COC(=O)c1nn(Cc2cc3cccc(C)c3c(=O)n2-c2ccccc2C)c2ncnc(N)c12`, the figures for the IC50 on PIK3CA (human), on PIK3CD (Human) and against PIK3CB (Human) were above 10 µM, 0.1 to 1 µM and above 10 µM, respectively.
Take `CC(=O)Nc1nc2cc(-c3nn(Cc4cc5cccc(C)c5c(=O)n4-c4ccccc4C)c4ncnc(N)c34)ccc2o1`: the IC50 against PIK3CD (Human) is below 0.1 µM; on PIK3CB (Human), 0.1 to 1 µM.
Turning to `Cc1ccccc1-n1c(Cn2nc(CCC(N)=O)c3c(N)ncnc32)cc2cccc(C)c2c1=O`, the 50% inhibitory concentration (IC50) against PIK3CA (human) is above 10 µM; against PIK3CD (Human), 0.1 to 1 µM; against PIK3CB (Human) it was above 10 µM.
Turning to `Cc1cccc2cc(C(C)Nc3ncnc4[nH]cnc34)n(C3CC3)c(=O)c12` (configuration not stated), the concentration for half-maximal inhibition (IC50) is below 0.1 µM at PIK3CD (Human) and 0.1 to 1 µM on PIK3CB (Human).
Take `Cc1ccccc1-n1c(Cn2nc(-c3ccc(O)cc3)c3c(N)ncnc32)cc2cccc(C)c2c1=O`: the IC50 against PIK3CA (human) was above 10 µM; against PIK3CD (Human), 0.1 to 1 µM; on PIK3CB (Human), above 10 µM.
Turning to `Cc1cccc2cc([C@H](C)Nc3ncnc4[nH]cnc34)n(-c3ccc(F)cc3)c(=O)c12`, the IC50 against PIK3CA (human) was 0.1 to 1 µM; against PIK3CD (Human) it was below 0.1 µM; on PIK3CB (Human), below 0.1 µM.
In the case of `Cc1cccc2cc([C@H](C)Nc3ncnc4[nH]cc(F)c34)n(-c3ccccc3)c(=O)c12`, the half-inhibitory concentration (IC50) on PIK3CD (Human) and against PIK3CB (Human) was below 0.1 µM in each case.
As for `Cc1cccc2cc(Cn3nc(-c4cccc(O)c4)c4c(N)ncnc43)n(C(C)C)c(=O)c12`, the half-inhibitory concentration (IC50) on PIK3CA (human) was above 10 µM; at PIK3CB (Human), 0.1 to 1 µM.
In the same order, the values of `Cc1ccccc1-n1c(CN(C)c2ncnc3[nH]cnc23)cc2cccc(C)c2c1=O` are above 10 µM and above 10 µM.
Regarding `Cc1cccc2cc([C@H](C)Nc3ncnc4[nH]nc(C(N)=O)c34)n(-c3ccccc3)c(=O)c12`, the half-inhibitory concentration (IC50) on PIK3CD (Human) and against PIK3CB (Human) was below 0.1 µM in each case.
On to `C=Cc1nn(Cc2cc3cccc(C)c3c(=O)n2-c2ccccc2F)c2ncnc(N)c12`, for which the half-maximal inhibitory concentration (IC50) at PIK3CA (human) is above 10 µM; against PIK3CD (Human), 0.1 to 1 µM; against PIK3CB (Human), above 10 µM.
On to `Cc1cccc2cc([C@H](C)Nc3ncnc4[nH]cc(Br)c34)n(C3CC3)c(=O)c12`, for which the IC50 at PIK3CA (human) is 0.1 to 1 µM; against PIK3CD (Human), below 0.1 µM; at PIK3CB (Human), below 0.1 µM.
Take `Cc1ccccc1-n1c(Cn2nc(-c3ccc(Cl)c(O)c3)c3c(N)ncnc32)cc2ccccc2c1=O`: the IC50 at PIK3CA (human) and at PIK3CB (Human) was above 10 µM each time.
As to `CC(=O)Nc1nc2ccc(-c3nn(Cc4cc5cccc(C)c5c(=O)n4-c4ccccc4C)c4ncnc(N)c34)cc2o1`, the IC50 on PIK3CA (human) is above 10 µM; against PIK3CD (Human), below 0.1 µM; at PIK3CB (Human) it was above 10 µM.
Consider `C[C@H](Nc1ncnc2[nH]cnc12)c1cc2cccc(Cl)c2c(=O)n1C1CC1`, for which the IC50 was 0.1 to 1 µM on PIK3CA (human), below 0.1 µM against PIK3CD (Human) and below 0.1 µM on PIK3CB (Human).
`Cc1cccc2cc(Cn3nc(Cl)c4c(N)ncnc43)n(-c3ccccc3F)c(=O)c12`: the values for the IC50 against PIK3CA (human), against PIK3CD (Human) and against PIK3CB (Human) were above 10 µM, 0.1 to 1 µM and above 10 µM, respectively.
With `Cc1cccc2cc(Cn3nc(-c4cccc(F)c4)c4c(N)ncnc43)n(-c3ccccc3F)c(=O)c12`, the IC50 against PIK3CA (human) and against PIK3CB (Human) was above 10 µM each time.
With `Cc1cccc2cc([C@H](C)Nc3cc(N)nc(Cl)n3)n(-c3ccccc3)c(=O)c12`, the IC50 was above 10 µM at PIK3CA (human), 0.1 to 1 µM against PIK3CD (Human) and above 10 µM against PIK3CB (Human).
As for `Cc1cccc2cc(Cn3nc(CF)c4c(N)ncnc43)n(-c3ccccc3)c(=O)c12`, the IC50 is below 0.1 µM at PIK3CD (Human) and above 10 µM on PIK3CB (Human).
For the molecule `Cc1cccc2cc([C@H](C)Nc3cc(N)nc(N)n3)n(C3CC3)c(=O)c12`, the 50% inhibitory concentration (IC50) against PIK3CA (human) and against PIK3CB (Human) was above 10 µM each time.
Turning to `Cc1cccc2cc(Cn3nc(C#N)c4c(N)ncnc43)n(-c3ccccc3F)c(=O)c12`, the IC50 at PIK3CA (human) and on PIK3CB (Human) was above 10 µM each time.
With `Cc1cccc2cc([C@H](C)Nc3ncc(C(F)(F)F)c(N)n3)n(-c3ccccc3)c(=O)c12`, the half-maximal inhibitory concentration (IC50) at PIK3CA (human) and at PIK3CB (Human) was above 10 µM throughout.
For `Cc1cccc2cc(Cn3nc(I)c4c(N)ncnc43)n(C3CCC3)c(=O)c12`, the IC50 on PIK3CA (human) and on PIK3CB (Human) was above 10 µM in each case.
On to `Cc1cccc2cc(Cn3nc(-c4cccc(O)c4)c4c(N)ncnc43)n(-c3ccccc3C(C)C)c(=O)c12`, for which the IC50 was above 10 µM on PIK3CA (human) and 0.1 to 1 µM on PIK3CB (Human).
For the molecule `Cc1cccc2cc([C@H](C)Nc3ncnc4[nH]cnc34)n(C3CC3)c(=O)c12`, the IC50 against PIK3CD (Human) and at PIK3CB (Human) was below 0.1 µM throughout.
As to `Cc1cccc2cc([C@H](C)Nc3ncnc4[nH]nc(C#N)c34)n(-c3ccccc3)c(=O)c12`, the IC50 against PIK3CD (Human) and against PIK3CB (Human) was below 0.1 µM in each case.
For `Cc1ccccc1-n1c(Cn2nc(-c3ccc(F)c(O)c3)c3c(N)ncnc32)cc2cccc(F)c2c1=O`, the half-inhibitory concentration (IC50) against PIK3CA (human) and on PIK3CB (Human) was above 10 µM each time.
As to `Cc1cccc2cc(Cn3nc(C(C)C)c4c(N)ncnc43)n(-c3ccccc3)c(=O)c12`, the IC50 against PIK3CA (human) and against PIK3CB (Human) was above 10 µM throughout.
Consider `Cc1ccccc1-n1c(Cn2nc(-c3ccc(F)c(O)c3)c3c(N)ncnc32)cc2ccccc2c1=O`, for which the IC50 against PIK3CA (human) and against PIK3CB (Human) was above 10 µM throughout.
Consider `CCc1ccccc1-n1c(Cn2nc(-c3cccc(O)c3)c3c(N)ncnc32)cc2cccc(C)c2c1=O`, for which the IC50 against PIK3CA (human) and against PIK3CB (Human) was above 10 µM in each case.
For the molecule `Cc1cccc2cc(Cn3nc(C#C[C@@H](C)O)c4c(N)ncnc43)n(C3CCCCC3)c(=O)c12`, the IC50 against PIK3CA (human) and against PIK3CB (Human) was above 10 µM each time.
For `Cc1cccc2cc(Cn3nc(C#C[C@@H](C)O)c4c(N)ncnc43)n(-c3ccccc3O)c(=O)c12`, the half-inhibitory concentration (IC50) against PIK3CA (human) and against PIK3CB (Human) was above 10 µM in each case.
With `Cc1cccnc1-n1c(Cn2nc(-c3ccc(F)c(O)c3)c3c(N)ncnc32)cc2cccc(C)c2c1=O`, the half-maximal inhibitory concentration (IC50) against PIK3CA (human) and against PIK3CB (Human) was above 10 µM in each case.
Turning to `Cc1cccc2cc(Cn3nc(-c4ccc(F)c(O)c4)c4c(N)ncnc43)n(C3CCCC3)c(=O)c12`, the IC50 against PIK3CA (human) and against PIK3CB (Human) was above 10 µM each time.
Regarding `CCN(Cc1cc2cccc(C)c2c(=O)n1-c1ccccc1C)c1ncnc2[nH]cnc12`, the IC50 at PIK3CA (human) and against PIK3CB (Human) was above 10 µM throughout.
As to `Cc1ccccc1-n1c(Cn2nc(CC#N)c3c(N)ncnc32)cc2cccc(C)c2c1=O`, the figures for the half-inhibitory concentration (IC50) at PIK3CD (Human) and on PIK3CB (Human) were below 0.1 µM and above 10 µM, respectively.
Consider `Cc1cccc2cc(Cn3nc(-c4cccc(O)c4)c4c(N)ncnc43)n(C3CC3)c(=O)c12`, for which the concentration for half-maximal inhibition (IC50) at PIK3CA (human) and on PIK3CB (Human) was 0.1 to 1 µM each time.
In the case of `Cc1cccc2cc([C@H](C)Nc3ncnc4[nH]ccc34)n(C3CC3)c(=O)c12`, the IC50 against PIK3CD (Human) and on PIK3CB (Human) was below 0.1 µM throughout.
In the case of `Cc1cccc2cc(Cn3nc(I)c4c(N)ncnc43)n(-c3ccccc3O)c(=O)c12`, the IC50 on PIK3CA (human) and against PIK3CB (Human) was above 10 µM throughout.
Consider `Cc1ccccc1-n1c(Cn2nc(-c3cccc(O)c3)c3c(N)ncnc32)cc2cccc(F)c2c1=O`, for which the concentration for half-maximal inhibition (IC50) on PIK3CA (human) and against PIK3CB (Human) was above 10 µM each time.
On to `Cc1ccccc1-n1c(Cn2nc(C#C[C@@H](C)O)c3c(N)ncnc32)cc2cccc(C)c2c1=O`, for which the IC50 at PIK3CA (human) and at PIK3CB (Human) was above 10 µM throughout.

The values above are taken from the Kinase Knowledgebase extract (Sharma et al. 2016).
